# Experimental data reported in ChEMBL document CHEMBL5584343, “Cerastecin Inhibition of the Lipooligosaccharide Transporter MsbA to Combat Acinetobacter baumannii: From Screening Impurity to In Vivo Efficacy” (J Med Chem, 2024).
# The source made the active and inactive calls. No cut-off for these calls is given here.
# Experiments:
# Acinetobacter baumannii [1] = assay: Antibacterial activity against Acinetobacter baumannii ATCC19606 assessed as bacterial growth inhibition incubated for 18 to 20 hrs by microbroth dilution method; assay type: functional; details: time 18-20 hrs
# [2] = Cytotoxicity against GFP fused human MT4 cells cultured under serum free condition for 24 hrs by CellTiter-Glo assay; assay type: toxicity, cell-based; details: GFP fused MT4 cells
# [3] = Inhibition of wildtype Acinetobacter baumannii MsbA preincubated for 30 mins followed by ATP addition and measured after 1 hrs by Transcreener ADP2 F1 assay
# Acinetobacter baumannii [4] = assay: Antibacterial activity against Acinetobacter baumannii ATCC19606 incubated for 18 to 20 hrs in presence of 1% of human serum by microbroth dilution method; assay type: functional; details: time 18-20 hrs
# Acinetobacter baumannii [5] = assay: Selectivity ratio of MIC95 for antibacterial activity against Acinetobacter baumannii ATCC19606 in the presence of 1% human serum to MIC95 for antibacterial activity against Acinetobacter baumannii ATCC19606; assay type: functional
# Acinetobacter baumannii [6] = assay: Antibacterial activity against Acinetobacter baumannii ATCC19606 incubated for 18 to 20 hrs in presence of 10% human serum by microbroth dilution method; assay type: functional; details: time 18-20 hrs
# Acinetobacter baumannii [7] = assay: Selectivity ratio of MIC95 for antibacterial activity against Acinetobacter baumannii ATCC19606 in the presence of 10% human serum to MIC95 for antibacterial activity against Acinetobacter baumannii ATCC19606; assay type: functional
Compound,MIC95 (Acinetobacter baumannii [1]),EC50 [3],MIC95 (Acinetobacter baumannii [4]),MIC95 (Acinetobacter baumannii [6]),EC50 at 24 h [2],Selectivity ratio (Acinetobacter baumannii [5]),Activity (Acinetobacter baumannii [6]),Selectivity ratio (Acinetobacter baumannii [7])
O=C(CCCOc1ccc(NS(=O)(=O)c2ccc(-c3ccccc3)s2)c(C(=O)O)c1)Nc1ccc(NS(=O)(=O)c2ccc(-c3ccccc3)s2)c(C(=O)O)c1,0.012 µM,< 10 nM,3.12 µM,–,> 42000 nM,260,–,–
O=C(O)c1cc(CN[C@H]2C[C@@H](CNc3ccc(NS(=O)(=O)c4cnn(-c5ccc(Cl)cc5)c4)c(C(=O)O)c3)C2)ccc1NS(=O)(=O)c1cnn(-c2ccc(Cl)cc2)c1,0.024 µM,2380 nM,0.098 µM,–,32700 nM,–,inactive,–
CCCCc1ccc(S(=O)(=O)Nc2ccc(NC(=O)CCC(=O)Nc3ccc(NS(=O)(=O)c4ccccc4)c(C(=O)O)c3)cc2C(=O)O)cc1,0.782 µM,311 nM,12.5 µM,–,–,16,–,–
O=C(O)c1cc(CNC2CN(Cc3ccc(NS(=O)(=O)c4cnn(-c5ccc(Cl)cc5)c4)c(C(=O)O)c3)C2)ccc1NS(=O)(=O)c1cnn(-c2ccc(Cl)cc2)c1,0.391 µM,887 nM,–,3.12 µM,> 42000 nM,–,–,8
O=C(O)c1cc(CN2CC(Oc3ccc(NS(=O)(=O)c4ccc(-c5ccc(F)cc5)cc4)c(C(=O)O)c3)C2)ccc1NS(=O)(=O)c1cnn(-c2ccc(F)cc2)c1,0.049 µM,17 nM,–,3.12 µM,> 42000 nM,–,–,64
CCCCc1ccc(S(=O)(=O)Nc2ccc(NC/C=C\CNc3ccc(NS(=O)(=O)c4ccc(CCCC)cc4)c(C(=O)O)c3)cc2C(=O)O)cc1,3.12 µM,> 198000 nM,25 µM,–,–,8,–,–
CCCCc1ccc(S(=O)(=O)Nc2ccc(NC(=O)CCC(=O)Nc3ccc(NS(=O)(=O)c4ccc(CCCC)cc4)c(C(=O)O)c3)c(C(=O)O)c2)cc1,0.391 µM,124 nM,12.5 µM,–,–,32,–,–
CCCCc1ccc(S(=O)(=O)Nc2ccc(NC(=O)CCC(=O)Nc3ccc(NS(C)(=O)=O)c(C(=O)O)c3)cc2C(=O)O)cc1,100 µM,6400 nM,200 µM,–,–,2,–,–
CCCCc1ccc(S(=O)(=O)Nc2ccc(NC(=O)CCC(=O)Nc3ccc(N(C)S(=O)(=O)c4ccc(CCCC)cc4)c(C(=O)O)c3)cc2C(=O)O)cc1,1.11 µM,456 nM,50 µM,–,–,45,–,–
CCCCc1ccc(S(=O)(=O)Nc2ccc(NC(=O)[C@H]3C[C@@H]3C(=O)Nc3ccc(NS(=O)(=O)c4ccc(CCCC)cc4)c(C(=O)O)c3)cc2C(=O)O)cc1 (racemic),1.1 µM,> 22100 nM,> 200 µM,–,–,>181,–,–
O=C(O)c1cc(CN2CC(Oc3ccc(NS(=O)(=O)c4ccc(-c5ccc(F)cc5)s4)c(C(=O)O)c3)C2)ccc1NS(=O)(=O)CCc1ccc(Cl)cc1,0.024 µM,5.7 nM,–,3.12 µM,38700 nM,–,–,130
CCCCc1ccc(S(=O)(=O)Nc2ccc(OCCCCOc3ccc(NS(=O)(=O)c4ccc(CCCC)cc4)c(C(=O)O)c3)cc2C(=O)O)cc1,0.049 µM,5.4 nM,12.5 µM,–,9800 nM,255,–,–
CCCCc1ccc(S(=O)(=O)Nc2ccc(NC(=O)CCCOc3ccc(NS(=O)(=O)c4ccc(CCCC)cc4)c(C(=O)O)c3)cc2C(=O)O)cc1,0.069 µM,16 nM,6.25 µM,–,–,91,–,–
O=C(O)c1cc(CN[C@H]2C[C@@H](NCc3ccc(NS(=O)(=O)c4cnn(-c5ccc(Cl)cc5)c4)c(C(=O)O)c3)C2)ccc1NS(=O)(=O)c1cnn(-c2ccc(Cl)cc2)c1,0.196 µM,1290 nM,–,3.12 µM,> 42000 nM,–,–,16
CCCCc1ccc(S(=O)(=O)Nc2ccc(NC(=O)CCC(=O)Nc3ccc(NS(=O)(=O)c4ccc(CCCC)cc4)c(P(=O)(O)O)c3)cc2C(=O)O)cc1,1.56 µM,416 nM,25 µM,–,–,16,–,–
CCCCc1ccc(S(=O)(=O)Nc2ccc(NC(=O)CCC(=O)Nc3ccc(NS(=O)(=O)c4ccc(CCCC)cc4)c(S(=O)(=O)O)c3)cc2C(=O)O)cc1,0.196 µM,37 nM,12.5 µM,–,–,64,–,–
CCCCc1ccc(S(=O)(=O)Nc2ccc(NC(=O)CCC(=O)Nc3ccc(NS(=O)(=O)c4ccc(CCCC)cc4)c(C(=O)O)c3)cc2O)cc1,1.56 µM,626 nM,25 µM,–,–,16,–,–
O=C(CCCOc1ccc(NS(=O)(=O)c2cnn(-c3ccc(Cl)cc3)c2)c(C(=O)O)c1)Nc1ccc(NS(=O)(=O)c2cnn(-c3ccc(Cl)cc3)c2)c(C(=O)O)c1,0.062 µM,< 10 nM,1.56 µM,–,22900 nM,25,–,–
CCCCc1ccc(S(=O)(=O)Nc2ccc(NC(=O)CCC(=O)Nc3ccc(NS(=O)(=O)c4ccc(Oc5ccccc5)nc4)c(C(=O)O)c3)cc2C(=O)O)cc1,0.069 µM,47 nM,4.42 µM,–,–,64,–,–
O=C(CCCOc1ccc(NS(=O)(=O)c2ccc(-c3ccc(Cl)cc3)s2)c(C(=O)O)c1)Nc1ccc(NS(=O)(=O)c2ccc(-c3ccc(Cl)cc3)s2)c(C(=O)O)c1,0.012 µM,< 10 nM,2.21 µM,–,3400 nM,184,–,–
O=C(O)c1cc(CN2CC(COc3ccc(NS(=O)(=O)c4cnn(-c5ccc(Cl)cc5)c4)c(C(=O)O)c3)C2)ccc1NS(=O)(=O)c1cnn(-c2ccc(Cl)cc2)c1,0.196 µM,581 nM,–,6.25 µM,> 42000 nM,–,–,32

# More lines, main results first:
MIC95 (Acinetobacter baumannii [1]),EC50 [3],MIC95 (Acinetobacter baumannii [4]),MIC95 (Acinetobacter baumannii [6]),Compound,EC50 at 24 h [2],Selectivity ratio (Acinetobacter baumannii [5]),Activity (Acinetobacter baumannii [6]),Selectivity ratio (Acinetobacter baumannii [7])
0.277 µM,27 nM,8.84 µM,–,CCCCc1ccc(S(=O)(=O)Nc2ccc(NC(=O)/C=C\C(=O)Nc3ccc(NS(=O)(=O)c4ccc(CCCC)cc4)c(C(=O)O)c3)cc2C(=O)O)cc1,–,32,–,–
0.196 µM,64 nM,12.5 µM,–,CCCCc1ccc(S(=O)(=O)Nc2ccc(NC(=O)CCC(=O)Nc3ccc(NS(=O)(=O)c4ccc(CCCC)nc4)c(C(=O)O)c3)cc2C(=O)O)cc1,–,64,–,–
0.049 µM,82 nM,–,6.25 µM,C[C@@H]1[C@H](Oc2ccc(NS(=O)(=O)c3cnn(-c4ccc(Cl)cc4)c3)c(C(=O)O)c2)CN1Cc1ccc(NS(=O)(=O)c2cnn(-c3ccc(Cl)cc3)c2)c(C(=O)O)c1 (racemic),> 42000 nM,–,–,128
0.196 µM,967 nM,25 µM,–,CCCCc1ccc(S(=O)(=O)Nc2ccc(NC(=O)CCC(=O)Nc3ccc(NS(=O)(=O)c4ccc(CCCC)cc4)c(C(=O)O)c3)cc2CC(=O)O)cc1,–,128,–,–
0.112 µM,83 nM,11.3 µM,–,CCCCc1ccc(S(=O)(=O)Nc2ccc(NC(=O)CCNC(=O)c3ccc(NS(=O)(=O)c4ccc(CCCC)cc4)c(C(=O)O)c3)cc2C(=O)O)cc1,–,101,–,–
0.098 µM,< 10 nM,1.56 µM,–,Cc1c(S(=O)(=O)Nc2ccc(NC(=O)CCCOc3ccc(NS(=O)(=O)c4cnn(-c5ccc(Cl)cc5)c4C)c(C(=O)O)c3)cc2C(=O)O)cnn1-c1ccc(Cl)cc1,900 nM,16,–,–
0.012 µM,29 nM,3.12 µM,–,O=C(CCCOc1ccc(NS(=O)(=O)c2ccc(Oc3ccc(Cl)cc3)nc2)c(C(=O)O)c1)Nc1ccc(NS(=O)(=O)c2ccc(Oc3ccc(Cl)cc3)nc2)c(C(=O)O)c1,36300 nM,260,–,–
1.56 µM,92 nM,25 µM,–,CCCCc1ccc(S(=O)(=O)Nc2ccc(NC(=O)CCC(=O)Nc3ccc(NS(=O)(=O)c4ccc(OC)nc4)c(C(=O)O)c3)cc2C(=O)O)cc1,–,16,–,–
0.024 µM,3.8 nM,1.11 µM,–,Cn1nc(-c2ccccc2)cc1S(=O)(=O)Nc1ccc(NC(=O)CCCOc2ccc(NS(=O)(=O)c3cc(-c4ccccc4)nn3C)c(C(=O)O)c2)cc1C(=O)O,700 nM,46,–,–
0.781 µM,790 nM,> 200 µM,–,CCCCc1ccc(S(=O)(=O)Nc2ccc(NC(=O)CCC(=O)Nc3ccc(NS(=O)(=O)c4ccc(CCCC)cc4)c(C(=O)O)c3)cc2)cc1,–,>256,–,–
0.049 µM,< 10 nM,–,3.12 µM,O=C(O)c1cc(CN2CC(Oc3ccc(NS(=O)(=O)c4ccc(-c5ccc(F)cc5)s4)c(C(=O)O)c3)C2)ccc1NS(=O)(=O)c1cnn(-c2ccc(Cl)cc2)c1,37000 nM,–,–,64
0.783 µM,597 nM,25 µM,–,CCCCc1ccc(NS(=O)(=O)c2ccc(NC(=O)CCC(=O)Nc3ccc(NS(=O)(=O)c4ccc(CCCC)cc4)c(C(=O)O)c3)cc2C(=O)O)cc1,–,32,–,–
6.25 µM,1240 nM,> 200 µM,–,CCCCc1ccc(S(=O)(=O)Nc2ccc(NC(=O)CCC(=O)Nc3ccc(NS(=O)(=O)c4ccc(CCCC)cc4)c(C(=O)O)c3)cc2CO)cc1,–,>32,–,–
